Laboratory results reported in PubChem BioAssay AID2060353 (Molecular Pharmacology Branch, DTP, NCI, 2025).

Tested on: 521955-158-R2-J5-PDC spheroids with stroma, growth inhibition
Experiment: Anticancer human tumor 521955-158-R2-J5-PDC patient-derived pancreatic carcinoma cell line growth inhibition [TAK]
Settings: for IC50: curve of first compound; for viability, T/C: stronger effect = lower value
Excerpt: Combinatorial screen of targeted agents with TAK-243 and ipatasertib in multi-cell type tumor spheroids
A high-throughput screen of multi-cell type tumor spheroids was designed to identify active combinations of targeted small molecules and TAK-243 or ipatasertib. Complex spheroids include a stromal component modeled by human endothelial cells (HUVEC) and fibroblasts modeled by human mesenchymal stem cells (MSCs). The concentration ranges selected for each drug and investigational agent were based upon clinically achievable concentrations if the clinical Cmax of the agent was known.
Compounds. The drugs and investigational agents: TAK-243 (785004), ipatasertib (767898), everolimus (733504), selumetinib (741078), bortezomib (756655), trametinib (758246), ixazomib (758254), vemurafenib (761431), dabrafenib (764134), sapanisertib (764658), alpelisib (765974), and copanlisib (816437), were obtained from the National Cancer Institute (NCI) Developmental Therapeutics Program Chemical Repository. The FDA-approved anticancer drug set is available from the NCI Developmental Therapeutics Program. […] The stock solutions were prepared in dimethyl sulfoxide (DMSO, Sigma-Aldrich, St. Louis, MO, cat. D2650) at 800-fold the tested concentration and stored at -70 degrees C prior to their use. All drugs and investigational agents were tested over a range starting from a high concentration at or near the clinical Cmax and decreasing in half-log increments. If the clinical Cmax for an agent had not been determined, the highest concentration tested was 10 microM.
NCI60 Cell Culture. NCI60 cell lines were obtained from the NCI Developmental Therapeutics Program Tumor Repository. For each lot of cells, the Repository performed Applied Biosystems AmpFLSTR Identifiler testing with PCR amplification to confirm consistency with the published Identifier STR profile for each cell line. Cells were kept in continuous culture for no more than 20 passages. The optimal seeding densities for each of the cell lines at each time point assessed were determined prior to performing the concentration response studies. Briefly, the NCI60 human tumor lines were grown as monolayers in RPMI 1640 medium supplemented with 10% FBS and 2 mmol/L L-glutamine.
An additional 2 lines were from the NCI60 cell line panel including melanomas, MALME-3M and SK-MEL-2. Pooled donor human umbilical vein endothelial cells (HUVEC, Lonza, cat. CC-2519) and human mesenchymal stem cells (hMSC, Lonza, cat. PT-2501) were purchased from Lonza (Walkersville, MD).
PDMR cell lines were grown in complete medium (DC medium): Dulbecco's modified Eagle's medium (DMEM)/F12 supplemented with 5% fetal bovine serum (FBS), 2 mM L-glutamine, 100 U/mL penicillin and 100 µg/ml streptomycin, 0.4 µg/ml hydrocortisone, 10 ng/ml epidermal growth factor (EGF) recombinant human protein, 24 µg/mL adenine, and 0.1 mg/mL primocin. During culture from frozen stock vials, PDMR cells were cultured in the same medium containing 10 µM Y-27632 (see Table 3). The PDCs were cultured in complete DMEM/F12 media without 10 microM Y-27632 dihydrochloride for at least two passages prior to the screen. The pooled donor HUVEC and hMSC were cultured in endothelial cell growth medium 2 (PromoCell, Heidelberg, Germany, cat. C-22011) and mesenchymal stem cell growth medium 2 (PromoCell, cat. C-28009), respectively. For all experiments, HUVEC and hMSC were used at passages </=5.
For the pre-screen, cell seeding densities were determined from a titration spanning the range from 5,000 to 313 cells per well. The mct-spheroids including 60% malignant cells, 25% HUVEC and 15% MSC dispensed as a mixture into U-bottom Ultra-Low Attachment 384-well plates (Corning, NY)
High-throughput Drug Combination Screening.
Prior to their inoculation into 384-well plates, malignant cells, HUVEC, and hMSC were removed from T flasks using TrypLE express (Thermo Fisher Scientific, cat. 12605036) and harvested by centrifugation for 5 min at 233 x g. […]
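Also: spheroids exposed to drugs for seven days before readout.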
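For viability, T/C in this document: 100% = DMSO vehicle control viability.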

Compound: CC(=O)Nc1cccc(-n2c(=O)n(C3CC3)c(=O)c3c(Nc4ccc(I)cc4F)n(C)c(=O)c(C)c32)c1 + CC(C)NCC(C(=O)N1CCN(c2ncnc3c2C(C)CC3O)CC1)c1ccc(Cl)cc1
- IC50 (second compound 0.3 µM): 714 pM
- IC50 (second compound 0.949 µM): 283 pM
- IC50 (second compound 3 µM): 267 pM
- IC50 (second compound 9.49 µM): 394 pM
- IC50 (second compound 30 µM): 109 pM
- viability, T/C (second compound 0.3 µM, first compound 94.9 pM): 94.6%
- viability, T/C (second compound 0.3 µM, first compound 0.0003 µM): 67.8%
- viability, T/C (second compound 0.3 µM, first compound 0.000949 µM): 40.3%
- viability, T/C (second compound 0.3 µM, first compound 0.003 µM): 33.8%
- viability, T/C (second compound 0.3 µM, first compound 0.00949 µM): 29.3%
- viability, T/C (second compound 0.3 µM, first compound 0.03 µM): 17.7%
- viability, T/C (second compound 0.949 µM, first compound 94.9 pM): 75.4%
- viability, T/C (second compound 0.949 µM, first compound 0.0003 µM): 46.7%
- viability, T/C (second compound 0.949 µM, first compound 0.000949 µM): 31.9%
- viability, T/C (second compound 0.949 µM, first compound 0.003 µM): 19.5%
- viability, T/C (second compound 0.949 µM, first compound 0.00949 µM): 11.9%
- viability, T/C (second compound 0.949 µM, first compound 0.03 µM): 5.36%
- viability, T/C (second compound 3 µM, first compound 94.9 pM): 62.6%
- viability, T/C (second compound 3 µM, first compound 0.0003 µM): 46.9%
- viability, T/C (second compound 3 µM, first compound 0.000949 µM): 37.6%
- viability, T/C (second compound 3 µM, first compound 0.003 µM): 22.1%
- viability, T/C (second compound 3 µM, first compound 0.00949 µM): 12.8%
- viability, T/C (second compound 3 µM, first compound 0.03 µM): 4.27%
- viability, T/C (second compound 9.49 µM, first compound 94.9 pM): 91.6%
- viability, T/C (second compound 9.49 µM, first compound 0.0003 µM): 53.6%
- viability, T/C (second compound 9.49 µM, first compound 0.000949 µM): 33.2%
- viability, T/C (second compound 9.49 µM, first compound 0.003 µM): 20%
- viability, T/C (second compound 9.49 µM, first compound 0.00949 µM): 10.8%
- viability, T/C (second compound 9.49 µM, first compound 0.03 µM): 4.02%
- viability, T/C (second compound 30 µM, first compound 94.9 pM): 51.5%
- viability, T/C (second compound 30 µM, first compound 0.0003 µM): 38.6%
- viability, T/C (second compound 30 µM, first compound 0.000949 µM): 18.3%
- viability, T/C (second compound 30 µM, first compound 0.003 µM): 8.52%
- viability, T/C (second compound 30 µM, first compound 0.00949 µM): 3.18%
- viability, T/C (second compound 30 µM, first compound 0.03 µM): 0.96%
